Results on five compounds are retold here after patent publication EP1248603B1, “USE OF PARTICULAR COMPOUNDS FOR PROPHYLAXIS AND TREATMENT OF HEPATITIS C” (Morphochem AG, priority 2000, dated 2001).

Where two headings read alike, the source gives them in different places.

This experiment has as its target T1, NS3 Proteinase (Hepatitis C virus genotype 1b, UniProt P26663).
T1 construct: beschriebenen NS3 Proteinase-Assay bestimmt
The experiment is described as follows: NS3 proteinase assay (analogous to Taliani et al., Analytical Biochemistry 240 (1996) 60-67; evaluation with GraFit 4). In kind it is biochemical. The text has this: Die IC50-Werte wurden analog zu dem in: M. Taliani et al., Analytical Biochemistry, 240 (1996) 60-67 beschriebenen NS3 Proteinase-Assay bestimmt. Die Auswertung erfolgte mit Hilfe des Programms "GraFit 4" der Firma Erithacus Software Ltd. (Staines, Middlesex, UK).

T1 sequence (P26663 1027-1657, other chains not shown): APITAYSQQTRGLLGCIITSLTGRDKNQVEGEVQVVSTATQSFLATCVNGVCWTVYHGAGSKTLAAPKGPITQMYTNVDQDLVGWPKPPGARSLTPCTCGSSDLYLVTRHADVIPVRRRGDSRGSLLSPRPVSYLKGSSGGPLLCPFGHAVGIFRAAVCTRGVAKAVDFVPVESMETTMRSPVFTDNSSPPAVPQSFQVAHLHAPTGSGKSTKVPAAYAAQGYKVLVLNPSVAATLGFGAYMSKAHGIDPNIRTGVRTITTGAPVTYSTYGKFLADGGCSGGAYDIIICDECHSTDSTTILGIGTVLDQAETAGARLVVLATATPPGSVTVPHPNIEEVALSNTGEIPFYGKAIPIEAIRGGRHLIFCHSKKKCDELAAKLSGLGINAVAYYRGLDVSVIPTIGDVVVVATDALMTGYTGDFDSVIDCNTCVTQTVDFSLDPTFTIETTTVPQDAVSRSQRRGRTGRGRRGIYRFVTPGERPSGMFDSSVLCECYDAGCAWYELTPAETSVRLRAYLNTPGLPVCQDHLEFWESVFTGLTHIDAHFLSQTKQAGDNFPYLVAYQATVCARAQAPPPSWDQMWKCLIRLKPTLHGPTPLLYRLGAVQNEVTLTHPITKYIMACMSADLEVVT

Regarding `Nc1ccc(O)c2ccccc12` [Beispiel 3, 1-Amino-4-naphthol], the IC50 (usually the concentration at which inhibition is half-maximal) (read-out: IC50) is 13 µM.

Consider `Oc1ccc(NCc2ccccc2)c2ccccc12` [Beispiel 4, 1-Benzylamino-4-naphthol], for which the IC50 (read-out: IC50) came out at 25 µM.

With `Nc1ccc(O)c2ncccc12` [Beispiel 5, 5-Amino-8-hydroxychinolin], the IC50 (read-out: IC50) came to 51 µM.

In turn, `O=C1C=CC(=O)c2ccccc21` [Beispiel 2, 1,4-Naphthochinon] returned an IC50 of 20 µM.

For the compound `CC1=CC(=O)c2ccccc2C1=O` [Beispiel 1, Menadion], the IC50 (read-out: IC50) worked out at 45 µM.
